Literature values in patent US6947791B2, “Method and apparatus for electrically assisted topical delivery of agents for cosmetic applications” (Genetronics, Inc., priority 1998, dated 2005).
Like-named read-outs stand apart in the source and are kept apart here.

Test system: human dermal fibroblasts
Conditions: for MTT50 (amount required to kill 50% of the cells in cell culture): pH 7.5

In the case of `O=C1O[C@H]([C@@H](O)CO)C([O-])=C1OP(=O)([O-])[O-].O=C1O[C@H]([C@@H](O)CO)C([O-])=C1OP(=O)([O-])[O-].[Mg+2].[Mg+2].[Mg+2]` [MAP], the “MTT50 (amount required to kill 50% of the cells in cell culture)” value (fibroblasts from person one) is listed as 75,000 ppm, the “MTT50 (amount required to kill 50% of the cells in cell culture)” value (fibroblasts from person two) is listed as “higher than 100,000 ppm” and the “cytotoxicity compared to L-ascorbic acid” value (fibroblasts of all ages) is listed as “significantly lower cytotoxicity”.
